In ChEMBL document CHEMBL2073817 (J Pharmacol Exp Ther, 2002):
Each block holds one molecule with its values, some of them ahead of it.

Key:
[1] = target: T1, OAT4 (Solute carrier family 22 member 11) (Homo sapiens, UniProt Q9NSA0); assay: TP_TRANSPORTER: inhibition of MTX uptake (MTX: 1 uM, Ibuprofen: 1000 uM) in OAT4-expressing S2 cells; type: functional, cell-based; parameters: scale not given: the % may be the effect or the level left; settings: probe MTX, read-out: Activity
T1 sequence (Q9NSA0 whole entry): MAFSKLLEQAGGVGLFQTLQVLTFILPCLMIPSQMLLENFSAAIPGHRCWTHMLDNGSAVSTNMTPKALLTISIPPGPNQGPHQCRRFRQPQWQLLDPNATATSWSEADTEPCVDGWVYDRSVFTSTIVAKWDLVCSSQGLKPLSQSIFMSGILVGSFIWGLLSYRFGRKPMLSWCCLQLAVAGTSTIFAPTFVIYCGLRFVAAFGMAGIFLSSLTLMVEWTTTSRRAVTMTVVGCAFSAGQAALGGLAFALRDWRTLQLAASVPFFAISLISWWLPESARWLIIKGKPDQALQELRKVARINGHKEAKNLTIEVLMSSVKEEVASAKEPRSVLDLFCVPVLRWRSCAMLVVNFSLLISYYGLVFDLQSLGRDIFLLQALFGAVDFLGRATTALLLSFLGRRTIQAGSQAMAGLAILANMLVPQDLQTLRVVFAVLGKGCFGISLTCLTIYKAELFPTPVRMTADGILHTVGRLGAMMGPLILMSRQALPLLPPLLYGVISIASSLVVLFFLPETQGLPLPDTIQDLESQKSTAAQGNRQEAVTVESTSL

[2] = target: T1, OAT4 (Solute carrier family 22 member 11); assay: TP_TRANSPORTER: inhibition of MTX uptake (MTX: 1 uM, Indomethacin: 500 uM) in OAT4-expressing S2 cells; type: functional, cell-based; parameters: scale not given: the % may be the effect or the level left; settings: probe MTX, read-out: Activity
[3] = target: T2, Organic anion transporter 3 (Homo sapiens, UniProt Q8TCC7); assay: TP_TRANSPORTER: inhibition of MTX uptake in OAT3-expressing S2 cells; type: functional, cell-based
T2 sequence (Q8TCC7 whole entry): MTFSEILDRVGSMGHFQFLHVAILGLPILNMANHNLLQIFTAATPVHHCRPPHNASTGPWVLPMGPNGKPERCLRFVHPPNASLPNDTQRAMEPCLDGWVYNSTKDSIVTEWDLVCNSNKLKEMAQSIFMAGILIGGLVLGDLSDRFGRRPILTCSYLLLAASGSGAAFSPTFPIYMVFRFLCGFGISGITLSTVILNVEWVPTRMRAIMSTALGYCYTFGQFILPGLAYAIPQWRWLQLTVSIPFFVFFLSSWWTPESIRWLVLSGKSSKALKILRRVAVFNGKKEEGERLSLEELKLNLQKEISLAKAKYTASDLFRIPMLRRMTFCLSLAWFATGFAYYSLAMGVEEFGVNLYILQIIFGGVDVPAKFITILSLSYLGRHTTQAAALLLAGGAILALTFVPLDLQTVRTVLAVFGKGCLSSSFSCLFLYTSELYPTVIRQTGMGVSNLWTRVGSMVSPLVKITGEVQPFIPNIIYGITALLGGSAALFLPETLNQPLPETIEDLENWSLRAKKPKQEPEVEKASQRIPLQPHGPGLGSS

[4] = target: T3, OAT1 (Solute carrier family 22 member 6) (Homo sapiens, UniProt Q4U2R8); assay: TP_TRANSPORTER: inhibition of MTX uptake (MTX: 1 uM, Indomethacin: 500 uM) in OAT1-expressing S2 cells; type: functional, cell-based; parameters: scale not given: the % may be the effect or the level left; settings: mouse, probe MTX, read-out: Activity
T3 sequence (Q4U2R8 whole entry): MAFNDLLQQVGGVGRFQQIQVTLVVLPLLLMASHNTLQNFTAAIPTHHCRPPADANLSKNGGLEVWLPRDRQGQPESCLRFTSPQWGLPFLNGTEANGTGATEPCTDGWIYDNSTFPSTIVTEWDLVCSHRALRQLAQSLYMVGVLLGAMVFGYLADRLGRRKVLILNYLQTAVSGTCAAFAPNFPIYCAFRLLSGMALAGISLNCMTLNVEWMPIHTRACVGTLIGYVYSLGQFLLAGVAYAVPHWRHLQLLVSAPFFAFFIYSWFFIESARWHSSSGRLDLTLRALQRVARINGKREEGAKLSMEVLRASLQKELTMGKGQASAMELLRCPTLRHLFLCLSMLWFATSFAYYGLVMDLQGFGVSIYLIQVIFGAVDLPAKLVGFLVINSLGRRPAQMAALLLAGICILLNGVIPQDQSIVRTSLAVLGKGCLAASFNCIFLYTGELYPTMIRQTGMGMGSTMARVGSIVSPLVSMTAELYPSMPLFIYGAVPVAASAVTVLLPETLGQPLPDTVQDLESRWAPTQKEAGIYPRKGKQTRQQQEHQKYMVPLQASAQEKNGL

[5] = target: T1, OAT4 (Solute carrier family 22 member 11); assay: TP_TRANSPORTER: inhibition of MTX uptake (MTX: 1 uM, Ketoprofen: 1000 uM) in OAT4-expressing S2 cells; type: functional, cell-based; parameters: scale not given: the % may be the effect or the level left; settings: mouse, probe MTX, read-out: Activity
[6] = target: T3, OAT1 (Solute carrier family 22 member 6); assay: TP_TRANSPORTER: inhibition of MTX uptake (MTX: 1 uM, Ketoprofen: 1000 uM) in OAT1-expressing S2 cells; type: functional, cell-based; parameters: scale not given: the % may be the effect or the level left; settings: probe MTX, read-out: Activity
[7] = target: T1, OAT4 (Solute carrier family 22 member 11); assay: TP_TRANSPORTER: inhibition of MTX uptake (MTX: 1 uM, PCG: 1000 uM) in OAT4-expressing S2 cells; type: functional, cell-based; parameters: scale not given: the % may be the effect or the level left; settings: mouse, probe MTX, read-out: Activity
[8] = target: T1, OAT4 (Solute carrier family 22 member 11); assay: TP_TRANSPORTER: inhibition of MTX uptake (MTX: 1 uM, Phenylbutazone: 1000 uM) in OAT4-expressing S2 cells; type: functional, cell-based; parameters: scale not given: the % may be the effect or the level left; settings: probe MTX, read-out: Activity
[9] = target: T3, OAT1 (Solute carrier family 22 member 6); assay: TP_TRANSPORTER: inhibition of MTX uptake (MTX: 1 uM, Phenylbutazone: 1000 uM) in OAT1-expressing S2 cells; type: functional, cell-based; parameters: scale not given: the % may be the effect or the level left; settings: probe MTX, read-out: Activity
[10] = target: T1, OAT4 (Solute carrier family 22 member 11); assay: TP_TRANSPORTER: inhibition of MTX uptake (MTX: 1 uM, Piroxicam: 1000 uM) in OAT4-expressing S2 cells; type: functional, cell-based; parameters: scale not given: the % may be the effect or the level left; settings: mouse, probe MTX, read-out: Activity
[11] = target: T1, OAT4 (Solute carrier family 22 member 11); assay: TP_TRANSPORTER: inhibition of MTX uptake (MTX: 1 uM, Probenecid: 1000 uM) in OAT4-expressing S2 cells; type: functional, cell-based; parameters: scale not given: the % may be the effect or the level left; settings: probe MTX, read-out: Activity
[12] = substrate: CN(Cc1cnc2nc(N)nc(N)c2n1)c1ccc(C(=O)N[C@@H](CCC(=O)O)C(=O)O)cc1; assay: TP_TRANSPORTER: uptake in OAT1-expressing S2 cells; type: functional, cell-based
[13] = substrate: CN(Cc1cnc2nc(N)nc(N)c2n1)c1ccc(C(=O)N[C@@H](CCC(=O)O)C(=O)O)cc1; assay: cells, lysate or membranes named

activity at 1000 µM [1]: 67.8%
Molecule: CC(C)Cc1ccc(C(C)C(=O)O)cc1 (centres undefined) [IBUPROFEN]

activity at 500 µM [2]: 60.9%
Ki [3]: 5.95 µM
activity at 500 µM [4]: 60.6%
Molecule: COc1ccc2c(c1)c(CC(=O)O)c(C)n2C(=O)c1ccc(Cl)cc1 [INDOMETHACIN]

Ki [3]: 1160 µM
activity at 1000 µM [5]: 81%
activity at 1000 µM [6]: 53.4%
Molecule: CC(C(=O)O)c1cccc(C(=O)c2ccccc2)c1 (centres undefined) [KETOPROFEN]

Ki [3]: 97.6 µM
activity at 1000 µM [7]: 79.7%
Molecule: CC1(C)S[C@@H]2[C@H](NC(=O)Cc3ccccc3)C(=O)N2[C@H]1C(=O)O [PENICILLIN G]

Ki [3]: 34.7 µM
activity at 1000 µM [8]: 55.7%
activity at 1000 µM [9]: 30%
Molecule: CCCCC1C(=O)N(c2ccccc2)N(c2ccccc2)C1=O [PHENYLBUTAZONE]

Ki [3]: 1200 µM
activity at 1000 µM [10]: 62%
Molecule: CN1C(C(=O)Nc2ccccn2)=C(O)c2ccccc2S1(=O)=O [PIROXICAM]

Further lines, the molecule ahead of its results:

Molecule: CCCN(CCC)S(=O)(=O)c1ccc(C(=O)O)cc1 [PROBENECID]
activity at 1000 µM [11]: 81.6%

Molecule: O=C(O)c1ccccc1O [SALICYLIC ACID]
Ki [3]: 1020 µM

B1: Solute carrier family 22 member 11 (Homo sapiens) (protein)
chain: T1 sequence (Q9NSA0 whole entry)
Km [12]: 17.8 µM

B2: Solute carrier family 22 member 6 (Homo sapiens) (protein)
chain: T3 sequence (Q4U2R8 whole entry)
Km [13]: 554 µM

B3: Organic anion transporter 3 (Homo sapiens) (protein)
chain: T2 sequence (Q8TCC7 whole entry)
Km [12]: 21.1 µM
